One assay has as its system HCT-116. The assay can be described thus: Cytotoxicity against human HCT-116 cells assessed as cell viability at 80 uM incubated for 3 days by CellTiter 96 Aqueous One Solution Proliferation Assay. In kind it is functional. To be noted: HCT-116, 72 h, time 3 day, read-out: Activity.
Assay [1] addresses Bifunctional 3'-5' exonuclease/ATP-dependent helicase WRN (Homo sapiens, UniProt Q14191). As to the kind of experiment: Induction of WRN thermal stability in human HCT-116 cells. In kind it is cell-based.

Calls of active or inactive are those of the source. The calls are words filed in the database; no cut-off is given here.

Sequence of Bifunctional 3'-5' exonuclease/ATP-dependent helicase WRN (Q14191 whole entry): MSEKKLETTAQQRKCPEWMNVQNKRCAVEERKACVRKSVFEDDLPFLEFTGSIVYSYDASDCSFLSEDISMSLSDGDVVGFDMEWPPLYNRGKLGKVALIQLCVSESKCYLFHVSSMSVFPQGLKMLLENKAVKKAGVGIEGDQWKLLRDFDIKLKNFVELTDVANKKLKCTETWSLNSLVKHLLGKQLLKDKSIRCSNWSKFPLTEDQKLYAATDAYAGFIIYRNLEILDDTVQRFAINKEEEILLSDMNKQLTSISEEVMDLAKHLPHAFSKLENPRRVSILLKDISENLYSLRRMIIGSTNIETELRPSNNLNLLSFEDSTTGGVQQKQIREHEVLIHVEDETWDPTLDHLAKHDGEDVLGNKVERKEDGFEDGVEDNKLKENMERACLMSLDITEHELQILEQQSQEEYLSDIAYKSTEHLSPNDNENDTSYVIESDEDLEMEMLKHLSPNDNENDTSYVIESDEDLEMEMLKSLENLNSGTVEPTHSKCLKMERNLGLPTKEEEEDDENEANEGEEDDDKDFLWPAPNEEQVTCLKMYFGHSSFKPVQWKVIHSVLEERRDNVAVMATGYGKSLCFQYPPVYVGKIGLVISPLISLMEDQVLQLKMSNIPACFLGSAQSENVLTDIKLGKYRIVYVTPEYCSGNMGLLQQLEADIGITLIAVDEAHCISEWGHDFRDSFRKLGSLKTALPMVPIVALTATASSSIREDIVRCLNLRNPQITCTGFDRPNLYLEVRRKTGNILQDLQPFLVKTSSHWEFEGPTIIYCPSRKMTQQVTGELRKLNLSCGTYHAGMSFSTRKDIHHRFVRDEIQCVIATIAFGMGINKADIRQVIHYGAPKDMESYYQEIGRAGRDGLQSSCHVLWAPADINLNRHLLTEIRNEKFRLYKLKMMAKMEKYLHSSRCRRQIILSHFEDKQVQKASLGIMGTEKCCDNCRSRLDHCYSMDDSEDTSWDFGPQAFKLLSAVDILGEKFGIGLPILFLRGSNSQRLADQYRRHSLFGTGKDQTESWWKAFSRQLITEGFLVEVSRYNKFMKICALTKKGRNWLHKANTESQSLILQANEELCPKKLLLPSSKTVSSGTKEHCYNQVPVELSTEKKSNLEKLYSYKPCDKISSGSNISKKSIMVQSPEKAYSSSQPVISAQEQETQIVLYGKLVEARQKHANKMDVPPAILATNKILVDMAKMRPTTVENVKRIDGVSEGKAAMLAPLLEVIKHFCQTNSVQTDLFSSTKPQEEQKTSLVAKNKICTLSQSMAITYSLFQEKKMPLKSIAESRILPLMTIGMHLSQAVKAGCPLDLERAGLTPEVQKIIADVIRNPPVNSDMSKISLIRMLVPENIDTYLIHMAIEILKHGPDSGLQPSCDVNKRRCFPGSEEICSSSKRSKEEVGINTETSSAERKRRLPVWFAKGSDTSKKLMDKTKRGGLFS

Consider `COCc1ccc(-c2ccc(C(C3=C(O)CC(C)(C)CC3=O)C3=C(O)CC(C)(C)CC3=O)s2)cc1`, for which the viability at 80 µM in the assay with HCT-116 was 24.6%. For `O=C(Nc1ccc(F)c(C(F)(F)F)c1)Nc1nnc(-c2ccncc2)s1`, the result in assay [1] was Active.

As for `CC1(C)CC(=O)C(C(C2=C(O)CC(C)(C)CC2=O)c2ccc(-c3ccn[nH]3)s2)=C(O)C1`, the viability at 80 µM in the assay with HCT-116 was found to be 68.6%. Same read-out and setting: with `CC1(C)CC(=O)C(C(C2=C(O)CC(C)(C)CC2=O)c2ccc(-c3ccccc3F)s2)=C(O)C1` the figure was 12.4%; with `CC1(C)CC(=O)C(C(C2=C(O)CC(C)(C)CC2=O)c2ccc(-c3cccnc3)s2)=C(O)C1`, 18.9%; with `CC1(C)CC(=O)C(C(C2=C(O)CC(C)(C)CC2=O)c2ccc(C#N)s2)=C(O)C1`, 70.1%. Same read-out and setting: the figure for `CC1(C)CC(=O)C(C(C2=C(O)CC(C)(C)CC2=O)c2cc([N+](=O)[O-])cs2)=C(O)C1` is 74.9%. Still for that read-out and setting: with `CC1(C)CC(=O)C(C(C2=C(O)CC(C)(C)CC2=O)c2ccc(-c3cccc(F)c3)s2)=C(O)C1` the figure was 10.8%; with `CC1(C)CC(=O)C(C(C2=C(O)CC(C)(C)CC2=O)c2ccc(-c3ccc(C(C)(C)C)cc3)s2)=C(O)C1`, 12.9%; with `CC1(C)CC(=O)C(C(C2=C(O)CC(C)(C)CC2=O)c2ccc(-c3ccccc3)s2)=C(O)C1`, 2.5%. Take `Cc1ccc(C(C2=C(O)CC(C)(C)CC2=O)C2=C(O)CC(C)(C)CC2=O)s1`: the viability at 80 µM with HCT-116 is 63.8%. The same measure, in the same setting: with `CCOc1cccc(-c2ccc(C(C3=C(O)CC(C)(C)CC3=O)C3=C(O)CC(C)(C)CC3=O)s2)c1` the figure was 1.8%; with `CC1(C)CC(=O)C(C(C2=C(O)CC(C)(C)CC2=O)c2ccc(-c3ccc(C(F)(F)F)cc3)s2)=C(O)C1`, 0.7%. The same measure, in the same setting: with `CC1(C)CC(=O)C(C(C2=C(O)CC(C)(C)CC2=O)c2ccc(-c3ccc(Cl)cc3)s2)=C(O)C1` the figure was 7.8%; with `CC1(C)CC(=O)C(C(C2=C(O)CC(C)(C)CC2=O)c2ccc(Cl)s2)=C(O)C1`, 1.4%.

Consider `CCc1sc(C(C2=C(O)CCCC2=O)C2=C(O)CCCC2=O)cc1[N+](=O)[O-]`, for which the viability at 80 µM with HCT-116 stood at 47.4%.

On to `CC1(C)CC(=O)C(C(C2=C(O)CC(C)(C)CC2=O)c2ccc(Cc3ccccc3)s2)=C(O)C1`, for which the viability at 80 µM in the assay on HCT-116 stood at 0.8%.

On to `CC1(C)CC(=O)C(C(C2=C(O)CC(C)(C)CC2=O)c2ccc(CCc3ccccc3)s2)=C(O)C1`, for which the viability at 80 µM with HCT-116 turned out to be 25.1%.

These data come from ChEMBL document CHEMBL5550089, “Discovery of thiophen-2-ylmethylene bis-dimedone derivatives as novel WRN inhibitors for treating cancers with microsatellite instability” (Bioorg Med Chem, 2024).
